This is an account of results in patent US20230348426A1, “OXOPYRROLIDINE FPR2 AGONISTS” (Bristol-Myers Squibb Company, priority 2020, published 2023).

For test [1], the target named is human FPR1 (Homo sapiens (Human), UniProt P21462). As to the kind of experiment: FPR1 cyclic adenosine monophosphate (cAMP) assay. It counts as cell-based. The settings on record: CHO cells overexpressing human FPR1; forskolin 10 µM; inhibition of cAMP production; read-out: hFPR1 cAMP EC50. An outline of the steps:
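CHO cells overexpressing human FPR1 (4,000 cells/well) stimulated with 10 µM forskolin plus 200 µM IBMX in the presence of compound (0.020 nM–100 µM, 1% DMSO), 30 min at room temperature. Intracellular cAMP measured by HTRF. Inhibition of cAMP production fitted to a 4-parameter logistic equation.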

The target in test [2] is human FPR2 (Homo sapiens (Human), UniProt P25090). In words: FPR2 cyclic adenosine monophosphate (cAMP) assay. It counts as cell-based. The conditions noted are these: CHO cells overexpressing human FPR2; forskolin 5 µM; inhibition of cAMP production; read-out: hFPR2 cAMP2 EC50. A digest of the protocol: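 CHO cells overexpressing human FPR2 (2,000/well) incubated 30 min at room temperature with compound (0.020 nM–100 µM, 1% DMSO), 5 µM forskolin and 200 µM IBMX.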
Chain of human FPR2 (P25090 whole entry): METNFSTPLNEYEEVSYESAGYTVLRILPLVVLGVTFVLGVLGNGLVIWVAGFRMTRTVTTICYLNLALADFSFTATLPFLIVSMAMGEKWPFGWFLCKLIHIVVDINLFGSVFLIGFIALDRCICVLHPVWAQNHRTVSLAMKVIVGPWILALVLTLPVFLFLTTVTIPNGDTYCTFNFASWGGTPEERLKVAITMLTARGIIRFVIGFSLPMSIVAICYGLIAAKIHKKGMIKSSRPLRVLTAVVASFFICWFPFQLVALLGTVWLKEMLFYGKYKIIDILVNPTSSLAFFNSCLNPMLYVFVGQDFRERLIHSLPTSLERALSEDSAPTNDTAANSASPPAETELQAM

SMILES strings stand for the structures.

Chain of human FPR1 (P21462 whole entry): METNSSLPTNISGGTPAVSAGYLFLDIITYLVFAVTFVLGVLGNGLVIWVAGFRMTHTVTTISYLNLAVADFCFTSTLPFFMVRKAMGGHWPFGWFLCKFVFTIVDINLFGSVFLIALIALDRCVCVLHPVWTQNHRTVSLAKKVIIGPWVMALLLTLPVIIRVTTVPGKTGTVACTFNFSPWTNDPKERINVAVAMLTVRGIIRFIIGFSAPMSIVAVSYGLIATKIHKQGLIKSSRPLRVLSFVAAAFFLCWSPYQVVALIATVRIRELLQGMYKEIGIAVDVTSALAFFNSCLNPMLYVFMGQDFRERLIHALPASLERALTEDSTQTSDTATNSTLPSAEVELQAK

Take `COc1ccc([C@@H]2CN(c3c(C)ccn(C4CCOC4)c3=O)C(=O)[C@H]2NC(=O)c2ccc(OC(F)F)cc2)cc1` (stereo partly drawn) [Example 265]: the half-maximal effective concentration (EC50) in test [1] came to 1.5 nM; in test [2], 7.6 nM.
The matching figures for `COc1cc(F)c([C@@H]2CN(c3nc(N4C(=O)CC[C@H]4CO)ccc3F)C(=O)[C@H]2NC(=O)c2ccc(OC(F)F)cc2)c(F)c1` [Example 266]: 410 nM and 7.6 nM.
On the same counts, the results for `COc1cc(F)c([C@@H]2CN(c3cc(F)cc(C(C)(C)O)c3)C(=O)[C@H]2NC(=O)c2ccc(Cl)cc2)c(F)c1` [Example 267] are 1600 nM and 7.7 nM.
As for `COCCn1cc(F)cc(N2C[C@@H](c3c(F)cc(OC)cc3F)[C@H](NC(=O)c3ccc(OC(F)F)cc3)C2=O)c1=O` [Example 268], the half-maximal effective concentration (EC50) in test [1] was found to be 140 nM; in test [2] it was 7.7 nM.
`COc1cc(F)c([C@@H]2CN(c3cccn(CC4CC(F)(F)C4)c3=O)C(=O)[C@H]2NC(=O)c2ccc(OC(F)(F)F)cc2)c(F)c1` [Example 269]: the EC50 amounted to 27 nM in test [1] and 7.7 nM in test [2].
On to `COc1cc(F)c([C@@H]2CN(c3nc(C4CCNCC4)ccc3C(F)(F)F)C(=O)[C@H]2NC(=O)c2ccc(OC(F)F)cc2)c(F)c1` [Example 270], for which the EC50 in test [1] was 180 nM; in test [2], 7.8 nM.
The matching figures for `COc1cc(F)c([C@@H]2CN(c3nc(NC4CCOC4)ccc3F)C(=O)[C@H]2NC(=O)c2ccc(OC(F)F)cc2)c(F)c1` (stereo partly drawn) [Example 271]: 1400 nM and 7.8 nM.
Regarding `COc1cc(F)c([C@@H]2CN(c3cccn(CC4CC4)c3=O)C(=O)[C@H]2NC(=O)c2ccc(OC(F)(F)F)cc2)c(F)c1` [Example 272], the figures for the EC50 in test [1] and in test [2] were 14 nM and 7.8 nM, respectively.
Turning to `COc1cc(F)c([C@@H]2CN(c3cccn(CCO)c3=O)C(=O)[C@H]2NC(=O)c2ccc(C)cc2)c(F)c1` [Example 273], the EC50 in test [1] was 1400 nM; in test [2] it was 7.8 nM.
In the case of `CNC(=O)C(C)Nc1ccnc(N2C[C@@H](c3c(F)cc(OC)cc3F)[C@H](NC(=O)c3ccc(Cl)cc3)C2=O)c1C(F)(F)F` (stereo partly drawn) [Example 275], the EC50 in test [1] turned out to be 6100 nM; in test [2] it was 8 nM.
On the same counts, the results for `COCCn1cccc(N2C[C@@H](c3ccc(OC)cc3)[C@H](NC(=O)c3ccc(OC(F)F)cc3)C2=O)c1=O` [Example 276] are 13 nM and 8 nM.
The matching figures for `COCCn1cccc(N2C[C@@H](c3c(F)cc(OC)cc3F)[C@H](NC(=O)c3ccc(C(F)(F)F)cc3)C2=O)c1=O` [Example 277]: 210 nM and 8 nM.
The matching figures for `COc1cc(F)c([C@@H]2CN(c3cccn(CCN4CCOCC4)c3=O)C(=O)[C@H]2NC(=O)c2ccc(OC(F)(F)F)cc2)c(F)c1` [Example 278]: 340 nM and 8.1 nM.
As to `COc1cc(F)c([C@@H]2CN(c3nccc(N4CCN(C)CC4)c3C(F)(F)F)C(=O)[C@H]2NC(=O)c2ccc(OC(F)F)cc2)c(F)c1` [Example 279], the values for the EC50 in test [1] and in test [2] were 5800 nM and 8.1 nM, respectively.
In the case of `COc1cc(F)c([C@@H]2CN(c3nc(N4CCCC4=O)ccc3F)C(=O)[C@H]2NC(=O)c2ccc(OC(F)F)cc2)c(F)c1` [Example 280], the EC50 in test [1] was found to be 26 nM; in test [2], 8.2 nM.
The matching figures for `COc1cc(F)c([C@@H]2CN(c3nccc(NCC(=O)NC4CC4)c3C(F)(F)F)C(=O)[C@H]2NC(=O)c2ccc(Cl)cc2)c(F)c1` [Example 281]: 560 nM and 8.2 nM.
`COc1cc(F)c([C@@H]2CN(c3nccc(N4CCN(S(C)(=O)=O)CC4)c3C(F)(F)F)C(=O)[C@H]2NC(=O)c2ccc(OC(F)F)cc2)c(F)c1` [Example 282]: the EC50 in test [1] came to 700 nM; in test [2], 8.3 nM.
The matching figures for `COCC(C(=O)N(C)C)n1cccc(N2C[C@@H](c3c(F)cc(OC)cc3F)[C@H](NC(=O)c3ccc(OC(F)(F)F)cc3)C2=O)c1=O` (stereo partly drawn) [Example 283]: 19 nM and 8.4 nM.
